{
  "source": "patent US8119640B2",
  "about": "“Hedgehog pathway antagonists methods of use” (The Board of Trustees of the Leland Stanford Junior …, priority 2008, dated 2012)",
  "key": {"MAPK": {"system": "MAPK", "settings": "NIH-3T3 cells, 10 μM U0126"}, "Smo": {"biological_target": "Smo (Mus musculus, UniProt P56726)", "experiment": "FRET assay for Smo multimerization (Smo-CFP/Smo-YFP)", "assay_type": "cell-based, murine", "set-up": "expressed in transfected cells; host or cells: NIH-3T3", "settings": "10 μM cyclopamine, 500 nM SAG, 10 μM HPIs", "protocol": "FRET assay for Smo multimerization. […] The cells were washed with PBS buffer, fixed with 4% paraformaldehyde for 20 min, and mounted on slides in 80% glycerol. Fluorescence signals were acquired with the 100× objective of a Zeiss LSM510 confocal microscope with the following conditions: CFP was excited by 458-nm light and the emission was collected through a BP 480-520-nm filter. YFP was excited by 514-nm light and the emission was collected through a BP 535-590-nm filter. The CFP signal was obtained before and after photobleaching YFP(CFPBP and CFPAP, respectively) using the full power of the 514-nm laser line for 1-2 min at the top half of each cell, leaving the bottom half unbleached as an internal control. The CFP fluorescence intensity was analyzed using Metamorph software (Universal Imaging Corp.), and the energy transfer efficiency was calculated using the formula: FRET %=((CFPAP−CFPBP)/CFPAP)×100. Photobleached areas in 11-19 cells were analyzed for each experimental condition."}, "Hh pathway [1]": {"system": "Hh pathway", "experiment": "Shh-EGFP assay for Hh pathway activation", "assay_type": "cell-based", "settings": "3 μM cyclopamine; 15 μM HPI-1, 20 μM HPI-2, 30 μM HPI-3, 30 μM HPI-4", "protocol": "Shh-EGFP assay for Hh pathway activation. A Gli-dependent enhanced green fluorescent protein reporter (Shh-EGFP) was generated by excising firefly luciferase cDNA from the 8XGliBs vector using NcoI/Hpal, and ligating in EGFP cDNA excised from the pEGFP-C1 vector (Clontech) by NcoI/Af/II digestion. […] The cells were grown to confluency and treated with DMEM containing 0.5% CS, 100 U/mL penicillin, 0.1 mg/mL streptomycin, and 5% Shh-N-conditioned medium for 30 h. Following Shh-N treatment, the adherent cultures were dissociated into single cells with 0.05% Trypsin-EDTA (300 μL/well; Invitrogen) for 5 min. The cells were then suspended in 1 mL of PBS containing 1% CS and sorted on a BD FACSAria (excitation: 488 nm; emission: 530/30 nm) to enrich for cells expressing EGFP in a Shh-N-responsive manner. […] To identify Shh-EGFP clones with maximum Shh-N-responsiveness, individual lines were seeded into 24-well plates (45,000 cell/well) and cultured for 48 h. The cells were then treated with DMEM containing 0.5% CS, 100 U/mL pencillin, 0.1 mg/mL streptomycin or the culture medium plus 5% Shh-N-conditioned medium. After 30 h, the adherent cultures were treated with 0.05% trypsin-EDTA (150 μL/well; Invitrogen) for 5 min to dissociate them into single cells. The cells were then resuspended in 500 μL of PBS containing 1% CS and analyzed on a BD FACSCalibur (excitation: 488 nm; emission: 530/30 nm). 10,000 cells were used to assess EGFP expression levels as a measure of Hh pathway activation, and the data was analyzed using FlowJo software (Tree Star). Clones with low basal EGFP levels and maximum Shh-Ninduced EGFP expression were selected for further use. To assess the inhibitory activities of the HPIs in the Shh-EGFP cells, a clonal line with maximum Shh-responsiveness was cultured in 24-well plates as described above. […] The resulting EGFP levels were then evaluated by FACS and quantified using the FlowJo software."}, "C3H10T(1/2) cells": {"system": "C3H10T(1/2) cells", "experiment": "C3H10T(1/2) assay for Hh pathway activation (alkaline phosphatase)", "assay_type": "cell-based", "protocol": "C3H10T(1/2) assay for Hh pathway activation. C3H10T(1/2) cells (ATCC) were plated into 96-well plates using DMEM containing 10% FBS, 100 U/mL penicillin, 0.1 mg/mL streptomycin, 5% Shh-N-conditioned medium, and various concentrations of the Hh pathway inhibitors. After approximately 40 h, the cells were washed with PBS and lysed in 50 μL of buffer containing 50 mM Tris-HCl, pH 9.5, 150 mM NaCl, 5 mM MgCl2, and 1% Triton X-100. Alkaline phosphatase activities in the cell lysates were quantified by adding 10 μL of the lysate to 50 μL of CDP-Star chemiluminescence reagent (Perkin Elmer) and measuring the resulting chemiluminescence on a Veritas microplate luminometer."}, "Hh pathway [2]": {"system": "Hh pathway", "experiment": "Shh-LIGHT2 assay for Hh pathway activation (Gli-dependent firefly luciferase)", "assay_type": "cell-based", "settings": "0.5 μM SAG versus Shh", "protocol": "Shh-LIGHT2 assay for Hh pathway activation and library screening conditions. h-N-conditioned medium was prepared as previously described. […] For 96-well plate assays, Shh-LIGHT2 cells were seeded into each plate (10,000 cells/well) and cultured to confluency. The Shh-LIGHT2 cells were then grown in DMEM containing 0.5% CS, 100 U/mL penicillin, 0.1 mg/mL streptomycin, either 5% Shh-N-conditioned medium or 500 nM SAG, and various concentrations of the HPIs. After the cells were cultured for another 30 h, the resulting firefly and Renilla luciferase activities were measured using a Dual Luciferase Reporter kit (Promega) and a Veritas microplate luminometer (Turner Biosystems).\nWhen the cells reached >90% confluency, they were removed by trypsinization and diluted to a final volume of 50 mL medium. This cell suspension was then plated into clear-bottom, white-walled 384-well plates using a Titertek Multidrop dispenser (50 μL/well) and the cells were cultured until they reached confluency (3-4 days). […] The plates were then placed into an automated Staccato system (Caliper Life Sciences), which includes an automated CO2 incubator. An automated protocol was then run, in 3 which a Multidrop dispenser added 10 μL of a SAG solution in 0.5% CS medium (final SAG concentration of 500 nM) to columns 1-22 and 100 nL of each compound solution was added to the plates using a V&P Scientific pin tool, resulting in a final compound screening concentration of 10 μM. The SAG-free wells were used as negative controls. After 28-32 h, the assay medium was manually removed and the plates were frozen. To assay the firefly luciferase activities, the plates were thawed and placed into a Twister II stacker in the Staccato system. Bright-Glo luciferase substrate (Promega) was added by the Multidrop dispenser and the plates were analyzed on an Analyst GT microplate reader (2 min in the dark, 0.2 sec integration/well; Molecular Devices). Hits were defined as compounds that reduce the firefly luciferase signal by at least 50% compared to inhibitor-free controls. Primary hits were then re-tested in duplicate in an eight-point, 1:1 serially diluted doseresponse curve with a starting concentration of 20 μM. In these experiments, the median inhibitory concentration (IC50) for both firefly and Renilla luciferase were determined using a Dual-Glo kit (Promega)."}, "Hh pathway [3]": {"system": "Hh pathway", "settings": "β-galactosidase reporter"}, "FLAG-Gli2": {"system": "FLAG-Gli2", "experiment": "Analysis of Gli2 processing and Shh-dependent Gli2 stabilization", "assay_type": "cell-based, mouse", "settings": "Shh-EGFP FLAG-Gli2 cells, absence and presence of Shh, 24 h", "protocol": "Analysis of Gli2 processing and Shh-dependent Gli2 stabilization. […] Each compound incubation was also done in the absence and presence of 5% Shh-N-conditioned medium, and the cells were maintained under these conditions for 24 h. The cells were subsequently solubilized in lysis buffer (100 μL/well; 50 mM Tris-HCl, pH 7.4, 1% Triton X-100, 250 mM NaCl, 2 mM EDTA, 20 mM NaF, 2 mM Na3VO4, 2 mM 2-mercaptoethanol, EDTA-free protease inhibitor cocktail (Roche)). This suspension was transferred to a 1.5-mL centrifuge tube and incubated on ice for 30 min, with vortexing every 5 min. The cell lysates were then centrifuged at 20,000×g at 4° C. for 20 min. Supernatants were removed, and a BCA protein assay was performed to quantify protein levels. Mouse anti-FLAG M2 agarose slurry (20 μL, Sigma) was pelleted by centrifugation and incubated with 800 ng of protein from each condition for 90 min at 4° C. and then washed three times with 1 mL of wash buffer (75 mM Tris-HCl buffer, pH 8.0 containing 225 mM NaCl, 0.5% Triton X-100) and centrifuged at 2,300×g at 4° C. The agarose beads were suspended in 30 μL of 1×SDS-PAGE sample buffer (50 mM Tris-HCl, pH 6.8 containing 10% glycerol, 2% SDS, 50 mM DTT, 200 mM 2-mercaptoethanol, and 0.001% bromophenol blue), and the mixture was boiled for 5 min. The samples were then resolved on a 4-12% Bis-Tris Criterion XT gel and transferred to a PVDF membrane. The membrane was dehydrated with methanol, and then probed with rabbit anti-FLAG antibody (Sigma; 1:1,000 dilution in blocking buffer (PBS 21 containing 3% non-fat dried milk and 0.01% Tween 20)) for 90 min. […] Blots were washed 4×3 min in PBS, and the immunoreactive bands were detected with a SuperSignal West Dura kit and a ChemiDoc XRS system. Protein bands were quantified using Quantity One software (Bio-Rad). For each experiment, boxes of equal size were drawn around the FLAG-Gli2 and FLAG-Gli2R bands. Band intensities were then normalized to the average intensity for all bands in a given experiment. The results from all experiments were averaged and normalized relative to the basal level of FLAG-Gli2 (DMSO treatment without Shh-N-conditioned medium)."}, "Hh pathway [4]": {"system": "Hh pathway"}},
  "data": [
    {"compound": "N#CC(=C(/N)Sc1ccccc1N)/C(C#N)=C(\\N)Sc1ccccc1N", "note": "[Compound U0126]", "values": [
      {"measurement": "PDGF-induced phosphorylation of p44/p22 MAPK", "setting": "MAPK", "value": "blocked p44/p22 MAPK phosphorylation"}
    ]},
    {"compound": "CNC1CCC(N(Cc2cccc(-c3ccncc3)c2)C(=O)c2sc3ccccc3c2Cl)CC1", "note": "(centres unmarked) [SAG, reference compound]", "values": [
      {"measurement": "Shh-induced fold change in Smo-CFP/Smo-YFP FRET", "setting": "Smo", "value": "Shh-insensitive"}
    ]},
    {"compound": "CC1=C2C[C@H]3[C@@H](CC=C4C[C@@H](O)CC[C@@]43C)[C@@H]2CC[C@]12O[C@@H]1C[C@H](C)CN[C@H]1[C@H]2C", "note": "[cyclopamine, reference compound]", "values": [
      {"measurement": "Fluorescence intensity of Shh-treated Shh-EGFP cells (FACS, words)", "setting": "Hh pathway [1]", "value": "fluorescence intensities similar to those of untreated cells"},
      {"measurement": "Block of Shh-induced differentiation of C3H10T(1/2) cells into osteoblasts", "setting": "C3H10T(1/2) cells", "value": "block the Shh-induced differentiation"},
      {"measurement": "Inhibition of Hh pathway activation induced by 0.5 μM SAG", "setting": "Hh pathway [2]", "value": "resistant to inhibition"},
      {"measurement": "Inhibition of Hh pathway activity in Ptch1-/- fibroblasts", "setting": "Hh pathway [3]", "value": "inhibit Hh pathway activity"},
      {"measurement": "FLAG-Gli2 levels and processing (immunoblotting)", "setting": "FLAG-Gli2", "value": "can suppress the effects of Shh"},
      {"measurement": "Inhibition of SmoM2-dependent Gli reporter expression in SmoM2-LIGHT cells", "setting": "Hh pathway [4]", "value": "significantly less potent"}
    ]}
  ]
}
